From US20090232848A1, “METHODS FOR CULTIVATING LAWSONIA INTRACELLULARIS” (priority 2004, published 2009)
Like-named read-outs stand apart in the source and are kept apart here.

Experiments:
Assay type in all cases: cell-based, Lawsonia intracellularis
[1] = system: L. intracellularis (STR isolate); details: after 10 passages; McCoy cells; cysteine hydrochloride 0.02%, no hydrogen purge
Description: The bacteria were passaged by cell lysis. Supernatants and cell lysates were prepared from both flasks, as described earlier, and were used to infect fresh monolayers of McCoy cells seeded into 25 cm^2 or 75 cm^2 flasks at split ratios of 1:1 or 1:2, depending on the extent of infection as determined by immunostaining of the 48-well plate monolayers.
The 48-well plates infected with or without cysteine hydrochloride were fixed with 80% acetone on day 5 post-infection, and stained using the immunoperoxidase and immunofluorescence methods as described previously. The percent of McCoy cells infected using hydrogen gassing versus cysteine HCl was evaluated after each bacterial passage.

[2] = system: L. intracellularis isolate VP1; details: cysteine HCl 0.02%; for Bacteria in the Supernatant / Bacteria in the Supernatant: motility / Monolayer infection by staining: McCoy cells; for Monolayer infection by staining: day 6 or 7 post-infection; for Flagella in lysed material by fluorescent antibody (FITC) staining: hydrochloride
Description: In a separate set of experiments, L. intracellularis isolate VP1 (passage 23) was used to infect McCoy cell monolayers. The cells were then placed in a microaerophilic environment for 15 days. […] Flasks were re-fed with fresh media. […] Monolayer cells from the flask were lysed using water. Briefly, media from the flask was removed, and approximately 16 ml of sterile de-ionized water was added to the flask, followed by incubation at 37° C. for 10 min. […] The flask was then gently tapped against the palm of the hand, and a drop of the lysed material was observed under a microscope. […] A 4.25% NaCl solution was immediately added to bring the media to near normal physiological osmolarity.
The lysed material was centrifuged at 3200×g for 15 minutes. The resultant pellet was re-suspended in 41 ml of DMEM with 7% FBS, and was used to infect fresh McCoy cells. 35 ml of this lysed L. intracellularis infective material was added to one 175 cm^2 flask seeded with McCoy cells, and 0.5 ml to one seeded Trac bottle. Both the flask and the Trac bottle were evacuated with a vacuum at 15 psi of Hg, and then purged with pure hydrogen. 5 ml and 0.5 ml of the material were also used to infect McCoy cells seeded in a 25 cm^2 flask and a Trac bottle, respectively. Following evacuation with 15 psi of vacuum and a nitrogen flush, a 5× stock solution of cysteine HCl was added to the 25 cm^2 flask and the corresponding Trac bottle to a final concentration of 0.02%. All flasks and Trac bottles were incubated at 37° C. in an incubator containing 8.0% oxygen, 8.8% carbon dioxide and 83.2% nitrogen. Re-feeding was carried out as described above; the flask and Trac bottle which received cysteine HCl were also refed to the same final concentration (0.02%).
The infection was monitored on day 6 or 7 post-infection by immunoperoxidase staining of the corresponding cover slips as described above. Infection was also monitored by flourescent antibody staining. Briefly, cell lysate was collected on a Cytospin microscopic slide using a Cytofunnel sample chamber (Shandon Inc.; Pittsburg, Pa.) and centrifugation for 10 min at 1500 rpm. The sample was air dried and fixed in acetone for 30 sec. The smear was then covered with a 1:400 dilution of rabbit anti-L. intracellularis polyclonal serum and incubated at 37° C. for 30 min. The slide was washed gently with PBS, and a 1:20 dilution of fluorescein-labeled Goat anti-rabbit IgG (H+L; Kirkegaard & Perry Labs) was added to the smear, and the slide was incubated at 37° C. for 30 min. It was then observed under a fluorescent microscope.

[3] = system: L. intracellularis hamster isolate STR; details: McCoy cells; day 5 post-infection; cysteine hydrochloride 0.02%
Description: The cells were incubated overnight at 37° C. in 5% CO2, and were infected the next day with ˜5×10^5 bacteria per 25 cm^2flask. The infected flasks and the 48-well plates were evacuated at 15 psi of Hg vacuum and purged with hydrogen. A second set of flasks and corresponding Trac bottles were evacuated and purged with pure nitrogen, and cysteine hydrochloride was added to a final concentration of 0.02%. The infected flasks and plates were incubated in a bi-gas incubator at 8.0% CO2, 8.8% O2 and 83.2% N2. The flasks were re-fed with 50% volume of media on day 2 and day 5 post-infection, using DMEM with 5% FBS. A determination of the degree of infection was made on day 5 using immunoperoxidase staining. Lysis and re-infection were carried out based on the extent of infection as monitored by immunostaining of 48-well plate infections (routinely on day 7 post-infection). The media supernatant was collected from the flasks and centrifuged at 3500 g for 30 minutes. The supernatant was discarded and the pellet resuspended in SPG with 5% FBS. The monolayers were washed with PBS, followed by the addition of water and incubation at 37° C. for 15 min, at which time cells began detaching from the flask. The cells were then lysed by passaging 4 to 5 times through a syringe fitted with an 18 ga needle. The lysate was centrifuged at 350 g for 5 min to pellet the cell nuclei. […]

[4] = system: L. intracellularis swine isolate VP1; details: McCoy cells; for Monolayer infection by immunoperoxidase staining: day 5 or 6 post-infection
Description: L. intracellularis swine isolate VP1 (passage 17) was used to infect McCoy cells. McCoy cells were seeded in tissue culture flasks at 1.25×10^5 cells per 25 cm^2 flask, and 1.25×10^4 cells per Trac bottle (Bibby Sterilin Ltd.; Staffordshire, United Kingdom), in DMEM supplemented with 7% fetal bovine serum (FBS). The Trac bottle was used to monitor simulative infection in the flask. The flasks and Trac bottles were incubated overnight at 37° C. in a humidified incubator with 5% CO2. The following day, cells in both the flask and Trac bottle were infected with the L. intracellularis swine isolate (passage 17) in fresh DMEM with 7% FBS. After the addition of L. intracellularis, the flasks and Trac bottles were treated in three different ways. One flask and the corresponding Trac bottle were evacuated at 15 psi of Hg vacuum and purged with pure hydrogen. A second flask and the corresponding Trac bottle were neither evacuated nor purged with hydrogen, but instead received a supplement of cysteine hydrochloride (Sigma, C-7477; St. Louis, Mo.), β-NAD and phoshatidylcholine to a final concentration of 0.01%, 5 mM and 100 ng/ml, respectively, during the first two passages, and only cysteine hydrochlride (0.02% final concentration) during the later passages. The third flask and the corresponding Trac bottle were not evacuated or purged with hydrogen, nor received any supplements. All flasks and Trac bottles were incubated at 37° C. in an incubator containing 8.0 % O2 and 8.8% CO2 and 83.2% N2. On day 2 and 5 post-infection, 50% of the media from all flasks and Trac bottles was replaced with fresh DMEM with 5% FBS with or without cysteine hydrochloride, β-NAD and phoshatidylcholine.
On day 5 or 6 post-infection, the monolayers in the tissue culture flasks were monitored by immunoperoxidase staining of the corresponding Trac bottle cover slip. Briefly, the cover slip from the Trac bottle was removed and washed gently with Phosphate Buffered Saline (PBS), and bound to a microscope slide using a permanent glue. The cover slip then was fixed in acetone for 30 sec at room temperature. Rabbit anti-L. intracellularis polyclonal antibody, diluted 1:400 in PBS, was added to cover the entire cover slip, which was then incubated in a humidified environment at 37° C. for 30 min. The cover slip was washed gently with PBS and a 1:20 dilution of peroxidase-conjugated goat anti-rabbit IgG (H+L; Kirkegaard & Perry Laboratories, Inc.; Gaithersburg, Md.) was added to the cover slip and incubated for 30 min at 37° C. Peroxidase substrate solution was prepared by dissolving 10 mg of 3,3′-Diaminobenzidine (DAB; Sigma-Aldrich; St. Louis, Mo.) in 20 ml of PBS. After filtration through Whatman 113V filter paper (Whatman International Ltd.; Kent, United Kingdom), 40 μl of 30% H2O2 was added to the dissolved substrate. The final substrate solution was added to the cover slip and incubated at room temperature for 5 min. After rinsing with tap water, the cover slip was counterstained for 30 sec using Modified Harris Hematoxylin Solution (Sigma-Aldrich). The stained slide then was rinsed with tap water and observed under a microscope. Infection of the McCoy cells was also assessed by microscopic viewing of the bacteria in the media within the flask.
The infected McCoy cells in the flask were lysed using a 0.1% potassium chloride (KCl) solution on day 6 or 7 post-infection. The lysed material was used to re-infect fresh McCoy cell monolayers in flasks and Trac bottles. Briefly, after removing the media from the flask, a 0.1% KCl solution was added (5 ml per 25 cm^2) and incubated at 37° C. for 5-10 min. The KCl solution was removed from the flask, and 2 ml of sucrose potassium glutamate (SPG; 0.218M sucrose, 0.0038M KH2PO4, 0.0072M K2H PO4, and 0.0049M potassium glutamate) with 5% FBS was added. A cell scraper was then used to remove the cells from the flask. They were then lysed by forcing them through a syringe fitted with a 18 ga needle. […]

[5] = system: L. intracellularis swine isolate PHE/MN-001; details: p49, after 9 passages, McCoy cells, cysteine hydrochloride 0.02%
Description: Two 75 cm^2 flasks were seeded in a similar manner as described for the hamster STR isolate, starting with 6×10^5 McCoy cells in DMEM with 7% FBS, and incubated overnight at 37° C. in 5% CO2. […] The following day, the flasks were infected using the supernatant and cell lysate from L. intracellularis (PHE/MN-001 isolate)-infected McCoy cells at passage 40. One flask was evacuated, supplemented with 0.02% cysteine hydrochloride, purged with hydrogen, and placed in the incubator. The second flask was supplemented with 0.02% cysteine hydrochloride and placed in the incubator without first purging using hydrogen. The two 48-well plates were infected with L. intracellularis in parallel with the two flasks, and once again served as controls for monitoring the infection and for immunostaining. The flasks and 48-well plates were incubated in the incubator at 8.0% CO2, 8.8% O2 and 83.2% N2. The flasks were re-fed with 50% volume of media on day 2 and day 5 post-infection using DMEM with 5% FBS.
The bacteria were passaged by cell lysis, as described in earlier. […] The percent of McCoy cells infected with cysteine hydrochloride and hydrogen gassing, as compared with cysteine HCl alone, was evaluated after each bacterial passage.

[6] = passage P18, Treatment 2 = cysteine HCl 0.01% + β-NAD 5 mM + phosphatidylcholine 100 ng/ml
[7] = passage P18, Treatment 2 = cysteine HCl 0.01% + β-NAD + phosphatidylcholine
[8] = passage P19, Treatment 2 = cysteine HCl 0.01% + β-NAD + phosphatidylcholine

| Structure (SMILES) | Culture expansion from one 25 cm^2 flask (increase) [1] | Bacteria in the Supernatant ([2]; passage P25) | Bacteria in the Supernatant: motility ([2]; passage P25) | Monolayer infection by staining ([2]; passage P26) | L. intracellularis infection of McCoy cells compared to infection using hydrogen gassing [2] | Viability of L. intracellularis ([2]; inactive culture after 15 days in microaerophilic environment) | Flagella in lysed material by fluorescent antibody (FITC) staining ([2]; passage P25) | Flagella in lysed material by fluorescent antibody (FITC) staining ([2]; passage P25, listed as cysteine chloride) | Infection by immunoperoxidase staining of cover slips [3] | Bacteria in the Supernatant [4, 6] | Monolayer infection by immunoperoxidase staining [4, 7] | Monolayer infection by immunoperoxidase staining [4, 8] | Monolayer infection by immunoperoxidase staining ([4]; passage P20, cysteine HCl 0.02% only) | Bacteria in the Supernatant ([4]; passage P21, cysteine HCl 0.02% only) | Bacterial Counts (per ml supernatant) ([5]; Split Ratio 1:2) | Bacterial Counts (per ml supernatant) ([5]; Split Ratio 1:4) | Monolayer infection by staining ([2]; passage P25) | Bacteria in the Supernatant ([4]; passage P20) |
| --- | --- | --- | --- | --- | --- | --- | --- | --- | --- | --- | --- | --- | --- | --- | --- | --- | --- | --- |
| Cl.N[C@@H](CS)C(=O)O [cysteine hydrochloride] | 12 fold | Slightly positive, | highly motile | 50-60% infection | enhanced | viability could be restored | elevated flagellar expression | showed large numbers of flagella. | about 20% | Slightly positive | Little or no infection | 20% | 30-40% (larger foci of | Highly positive | 8.5 × 10^7 per ml supernatant | 5.8 × 10^7 per ml supernatant | – | – |
| [HH] [hydrogen, reference compound] | 4 fold | Slightly positive, | Normal motilty | – | – | – | – | – | about 20% | Positive | 60-70% | ≧80% | – | – | – | – | Lesser infection (smaller and | Highly positive |
